These results are taken from patent publication US20220104492A1, “PYRIDAZINIUM COMPOUNDS FOR USE IN A METHOD OF CONTROLLING UNWANTED PLANT GROWTH” (SYNGENTA CROP PROTECTION AG, priority 2019, published 2022).

Common to all, as to assay: Post-emergence efficacy (glasshouse, spray application)
Common to all, as to type: in vivo

Test [1] concerns Amaranthus palmeri (AMAPA). As to conditions: 312 h, read-out: Control of weed species after post-emergence application, AMAPA. As for the experimental part: (§1) Seeds of a variety of test species were sown in standard soil in pots. After cultivation for 14 days (post-emergence) under controlled conditions in a glasshouse (at 24/16° C., day/night; 14 hours light; 65 humidity), the plants were sprayed with an aqueous spray solution derived from the dissolution of the technical active ingredient formula (I) in a small amount of acetone and a special solvent and emulsifier mixture referred to as IF50 (11.12% Emulsogen EL360 TM+44.44% N-methylpyrrolidone+44.44% Dowanol DPM glycol ether), to create a 50 g/l solution which was then diluted to required concentration using a solution of 0.25% or 1% Empicol ESC70 (Sodium lauryl ether sulphate)+1% ammonium sulphate in water as diluent.
(§2) The test plants were then grown in a glasshouse under controlled conditions (at 24/16° C., day/night; 14 hours light; 65% humidity) and watered twice daily. After 13 days the test was evaluated (100=total damage to plant; 0=no damage to plant).
(§3) Ipomoea hederacea (IPOHE), Euphorbia heterophylla (EPHHL), Chenopodium album (CHEAL), Amaranthus palmeri (AMAPA), Lolium perenne (LOLPE), Digitaria sanguinalis (DIGSA), Eleusine indica (ELEIN), Echinochloa crus-galli (ECHCG), Setaria faberi (SETFA)

The subject of test [2] is Chenopodium album (CHEAL). As to conditions: 312 h, read-out: Control of weed species after post-emergence application, CHEAL. As for the experimental part: as §1, §2, §3
Test [3] has as its system Digitaria sanguinalis (DIGSA). The conditions noted are these: 312 h, read-out: Control of weed species after post-emergence application, DIGSA. On the procedure: as §1, §2, §3
The subject of test [4] is Echinochloa crus-galli (ECHCG). As to conditions: 312 h, read-out: Control of weed species after post-emergence application, ECHCG. As for the experimental part:
as §1, §2, §3

A further test relates to Eleusine indica (ELEIN). As to conditions: 312 h, read-out: Control of weed species after post-emergence application, ELEIN. On the procedure: as §1, §2, §3
The subject of test [5] is Euphorbia heterophylla (EPHHL). As to conditions: 312 h, read-out: Control of weed species after post-emergence application, EPHHL. As for the experimental part: as §1, §2, §3
Test [6] concerns Ipomoea hederacea (IPOHE). The conditions noted are these: 312 h, read-out: Control of weed species after post-emergence application, IPOHE. As for the experimental part: as §1, §2, §3
The next test deals with Lolium perenne (LOLPE). The conditions noted are these: 312 h, read-out: Control of weed species after post-emergence application, LOLPE. On the procedure:
as §1, §2, §3

For the next test, the system named is Setaria faberi (SETFA). As to conditions: 312 h, read-out: Control of weed species after post-emergence application, SETFA. As for the experimental part:
as §1, §2, §3

Where [7] appears, read: Application rate 500 g/Ha, evaluated after 13 days, 100=total damage to plant, 0=no damage to plant.

SMILES strings stand for the structures. Read-outs that look alike come from different tables or passages of the source.

For the molecule `O=C(O)CNC(=O)C[n+]1ccc(-c2ncccn2)cn1` [Compound A1, 2-[[2-(4-pyrimidin-2-ylpyridazin-1-ium-1-yl)acetyl]amino]acetic acid 2,2,2-trifluoroacetate], the pest or weed control at 500 g/ha came out at 100% in test [1]; 100% in test [2]; 90% in [3]; 70% in test [4]; 90% in the test with Eleusine indica (ELEIN); 90% in [5]. Further, the pest or weed control at 500 g/ha worked out at 100% in [6], 70% in the test with Lolium perenne (LOLPE) and 60% in the test on Setaria faberi (SETFA).

On to `CCC(NC(=O)C[n+]1ccc(-c2ncccn2)cn1)C(=O)O` (stereo not shown) [Compound A2], for which the pest or weed control at 500 g/ha came to 100% in [1] (setting [7]); 90% in test [2] (setting [7]); 80% in [3] (setting [7]); 90% in test [4] (setting [7]); 70% in the test on Eleusine indica (ELEIN) (setting [7]); 100% in test [5] (setting [7]). Further, the figures for the pest or weed control at 500 g/ha (in [6] (setting [7]); in the test with Lolium perenne (LOLPE) (setting [7]); with Setaria faberi (SETFA) (setting [7])) were 100%, 40% and 40%, respectively.

Regarding `CCCC(NC(=O)C[n+]1ccc(-c2ncccn2)cn1)C(=O)O` (stereo not shown) [Compound A3], the pest or weed control at 500 g/ha in test [1] (setting [7]) is 100%; in test [2] (setting [7]), 100%; in [3] (setting [7]) it was 90%; in [4] (setting [7]) it was 90%; in the test on Eleusine indica (ELEIN) (setting [7]) it was 100%; in test [5] (setting [7]) it was 100%. Moreover, the values for the pest or weed control at 500 g/ha (in test [6] (setting [7]); in the test with Lolium perenne (LOLPE) (setting [7]); in the test with Setaria faberi (SETFA) (setting [7])) were 70%, 50% and 70%, respectively.

For the molecule `O=C(O)COCC[n+]1ccc(-c2ncccn2)cn1` [Compound A4], the pest or weed control at 500 g/ha in [1] (setting [7]) was 100%; in test [2] (setting [7]) it was 100%; in [3] (setting [7]) it was 90%; in test [4] (setting [7]), 90%; in the test on Eleusine indica (ELEIN) (setting [7]), 100%; in test [5] (setting [7]), 100%. Further, the results for the pest or weed control at 500 g/ha (in [6] (setting [7]); in the test with Lolium perenne (LOLPE) (setting [7]); in the test on Setaria faberi (SETFA) (setting [7])) were 90%, 80% and 100%, respectively.

Regarding `CCC(C)C(NC(=O)C[n+]1ccc(-c2ncccn2)cn1)C(=O)O` (stereo not shown) [Compound A5], the pest or weed control at 500 g/ha in test [1] (setting [7]) was 100%; in test [2] (setting [7]) it was 100%; in [3] (setting [7]) it was 10%; in [4] (setting [7]), 30%; in the test with Eleusine indica (ELEIN) (setting [7]), 10%; in test [5] (setting [7]), 100%. Also, the pest or weed control at 500 g/ha in [6] (setting [7]) is 60%; in the test with Lolium perenne (LOLPE) (setting [7]), 0%; in the test with Setaria faberi (SETFA) (setting [7]), 10%.

Consider `CC(C)CC(NC(=O)C[n+]1ccc(-c2ncccn2)cn1)C(=O)O` (stereo not shown) [Compound A6], for which the pest or weed control at 500 g/ha in [1] (setting [7]) is 100%; in test [2] (setting [7]), 100%; in test [3] (setting [7]) it was 50%; in test [4] (setting [7]), 70%; with Eleusine indica (ELEIN) (setting [7]), 90%; in [5] (setting [7]) it was 100%. Moreover, the pest or weed control at 500 g/ha came out at 90% in test [6] (setting [7]), 40% with Lolium perenne (LOLPE) (setting [7]) and 50% in the test with Setaria faberi (SETFA) (setting [7]).

Consider `NC(=O)CC(NC(=O)C[n+]1ccc(-c2ncccn2)cn1)C(=O)O` (stereo not shown) [Compound A7], for which the pest or weed control at 500 g/ha is 10% in [1] (setting [7]); 60% in [2] (setting [7]); 40% in test [3] (setting [7]); 30% in test [4] (setting [7]); 30% in the test with Eleusine indica (ELEIN) (setting [7]); 30% in test [5] (setting [7]). Further, the pest or weed control at 500 g/ha amounted to 0% in [6] (setting [7]), 0% in the test with Lolium perenne (LOLPE) (setting [7]) and 40% with Setaria faberi (SETFA) (setting [7]).

As to `CN(CC(=O)O)C(=O)C[n+]1ccc(-c2ncccn2)cn1` [Compound A8, 2-[methyl-[2-(4-pyrimidin-2-ylpyridazin-1-ium-1-yl)acetyl]amino]acetic acid 2,2,2-trifluoroacetate], the pest or weed control at 500 g/ha in test [1] (setting [7]) was 100%; in test [2] (setting [7]), 100%; in test [3] (setting [7]), 70%; in [4] (setting [7]), 80%; in the test with Eleusine indica (ELEIN) (setting [7]), 90%; in test [5] (setting [7]), 100%. Also, the pest or weed control at 500 g/ha in test [6] (setting [7]) worked out at 60%; with Lolium perenne (LOLPE) (setting [7]) it was 40%; with Setaria faberi (SETFA) (setting [7]), 70%.

As to `O=C(O)CCC(=O)C[n+]1ccc(-c2ncccn2)cn1` [Compound A9, 4-oxo-5-(4-pyrimidin-2-ylpyridazin-1-ium-1-yl)pentanoic acid chloride], the pest or weed control at 500 g/ha in test [1] (setting [7]) amounted to 70%; in test [2] (setting [7]), 70%; in test [3] (setting [7]), 50%; in test [4] (setting [7]), 70%; in the test with Eleusine indica (ELEIN) (setting [7]), 70%; in [5] (setting [7]) it was 70%. Besides, the pest or weed control at 500 g/ha was 40% in test [6] (setting [7]), 0% in the test on Lolium perenne (LOLPE) (setting [7]) and 30% in the test with Setaria faberi (SETFA) (setting [7]).

As for `O=C(O)CNC(=O)CNC(=O)C[n+]1ccc(-c2ncccn2)cn1` [Compound A10], the pest or weed control at 500 g/ha is 90% in [1] (setting [7]); 60% in [2] (setting [7]); 80% in [3] (setting [7]); 70% in test [4] (setting [7]); 90% in the test on Eleusine indica (ELEIN) (setting [7]); 90% in test [5] (setting [7]). Moreover, the pest or weed control at 500 g/ha in [6] (setting [7]) was 40%; in the test on Lolium perenne (LOLPE) (setting [7]) it was 40%; in the test with Setaria faberi (SETFA) (setting [7]), 80%.

As for `OCCOCC[n+]1ccc(-c2ncccn2)cn1` [Compound A17, 2-[2-(4-pyrimidin-2-ylpyridazin-1-ium-1-yl)ethoxy]ethanol 2,2,2-trifluoroacetate], the pest or weed control at 500 g/ha was found to be 30% in test [1] (setting [7]); 50% in [2] (setting [7]); 30% in test [4] (setting [7]); 20% in the test with Eleusine indica (ELEIN) (setting [7]); 30% in [5] (setting [7]); 0% in [6] (setting [7]). Besides, the values for the pest or weed control at 500 g/ha with Lolium perenne (LOLPE) (setting [7]) and with Setaria faberi (SETFA) (setting [7]) were 10% and 20%, respectively.

As for `O=C(O)CNS(=O)(=O)CC[n+]1ccc(-c2ncccn2)cn1` [Compound A29, 2-[2-(4-pyrimidin-2-ylpyridazin-1-ium-1-yl)ethylsulfonylamino]-acetic acid 2,2,2-trifluoroacetate], the pest or weed control at 500 g/ha in test [1] (setting [7]) amounted to 100%; in test [2] (setting [7]), 70%; in test [4] (setting [7]), 50%; in the test on Eleusine indica (ELEIN) (setting [7]) it was 70%; in test [5] (setting [7]), 90%; in test [6] (setting [7]) it was 40%. Further, the pest or weed control at 500 g/ha worked out at 50% in the test on Lolium perenne (LOLPE) (setting [7]) and 60% in the test on Setaria faberi (SETFA) (setting [7]).
